{"source": "patent US20090263509A1", "about": "“ANTIBACTERIAL AGENT AND ANTIBACTERIAL COMPOSITION” (SAKAMOTO BIO CO., LTD, priority 2004, published 2009)", "type_in_all_cases": "cell-based", "key": {"[1]": {"system": "Staphylococcus aureus (IFO13276 ATCC6538)", "test": "Antimicrobial activity, agar medium dilution method (MIC / growth observation)", "set-up": "key to Antibacterial Effect with Specimen Concentration: A: antibacterially effective; B: bacteriostatically active; C: some growth inhibiting effective; D: non effective", "description": "(§1) Antimicrobial activity was assayed using the method described below. Paraben was used as a positive control. Staphylococcus aureus (IFO13276 ATCC6538), Candida albicans (IFO1594 ATCC10231), Aspergillus niger (IFO9455 ATCC16401), Pseudomonas aeruginosa (IFO013275 ATCC9027), Escherichia coli (IFO3972 ATCC8739) Antibacterial effect was evaluated by using either qualitative observation of the growing strains in the presence of each specimen or measuring the minimum inhibitory concentration (MIC) of the strains. An agar medium dilution method was adopted for the evaluation using Mueller-Hinton agar media (Eiken Chemical Co., Ltd.). The experiment was performed using the MIC test method following the standards of the Japanese Society of Chemotherapy. More specifically, each specimen was measured, when dissolved in 50/50 ethanol/water mixture and used to prepare 1 mL of each test specimen. 9 mL of measuring medium was added to the test specimens to create an agar plate. […] of the experimental bacterial liquid (live bacteria: 10^6-10^8/mL) was added to the agar plate. The growth and development of the bacteria was judged and recorded after it was cultured for 24 hours at 37° C. The minimum concentration that inhibited bacterial growth was regarded as MIC. The evaluation results of Example 1 are shown in Table 1 (MIC Rate) and Table 2 (Antibacterial Effect with Specimen Concentration). The MIC rates in Table 1 are given in μg/ml. […] The meaning of the symbols used in Table 2 is as follows: A: antibacterially effective, B: bacteriostatically active, C: some growth inhibiting effective, D: non effective."}, "[2]": {"system": "Aspergillus niger (IFO9455 ATCC16401)", "test": "Antimicrobial activity, agar medium dilution method (MIC / growth observation)", "set-up": "key to Antibacterial Effect with Specimen Concentration: A: antibacterially effective; B: bacteriostatically active; C: some growth inhibiting effective; D: non effective", "description": "as §1"}, "[3]": {"system": "Candida albicans (IFO1594 ATCC10231)", "test": "Antimicrobial activity, agar medium dilution method (MIC / growth observation)", "set-up": "key to Antibacterial Effect with Specimen Concentration: A: antibacterially effective; B: bacteriostatically active; C: some growth inhibiting effective; D: non effective", "description": "as §1"}, "[4]": {"system": "Pseudomonas aeruginosa (IFO013275 ATCC9027)", "test": "Antimicrobial activity, agar medium dilution method (MIC)", "conditions": "Mueller-Hinton agar, 24 hours at 37° C.", "description": "(§2) Antimicrobial activity was assayed using the method described below. Paraben was used as a positive control. Staphylococcus aureus (IFO13276 ATCC6538), Candida albicans (IFO1594 ATCC10231), Aspergillus niger (IFO9455 ATCC16401), Pseudomonas aeruginosa (IFO013275 ATCC9027), Escherichia coli (IFO3972 ATCC8739) Antibacterial effect was evaluated by using either qualitative observation of the growing strains in the presence of each specimen or measuring the minimum inhibitory concentration (MIC) of the strains. An agar medium dilution method was adopted for the evaluation using Mueller-Hinton agar media (Eiken Chemical Co., Ltd.). The experiment was performed using the MIC test method following the standards of the Japanese Society of Chemotherapy. More specifically, each specimen was measured, when dissolved in 50/50 ethanol/water mixture and used to prepare 1 mL of each test specimen. 9 mL of measuring medium was added to the test specimens to create an agar plate. […] of the experimental bacterial liquid (live bacteria: 10^6-10^8/mL) was added to the agar plate. The growth and development of the bacteria was judged and recorded after it was cultured for 24 hours at 37° C. The minimum concentration that inhibited bacterial growth was regarded as MIC. The evaluation results of Example 1 are shown in Table 1 (MIC Rate) and Table 2 (Antibacterial Effect with Specimen Concentration). […]"}, "[5]": {"system": "Escherichia coli (IFO3972 ATCC8739)", "test": "Antimicrobial activity, agar medium dilution method (MIC)", "conditions": "Mueller-Hinton agar, 24 hours at 37° C.", "description": "as §2"}, "[6]": {"conditions": "specimen concentration 50 μg/ml"}, "[7]": {"conditions": "specimen concentration 500 μg/ml"}, "[8]": {"conditions": "Mueller-Hinton agar, 24 hours at 37° C."}}}
{"smiles": "COc1ccc(C2COc3cc(O)ccc3C2)c(OC)c1O", "note": "(single isomer, unassigned) [Mucronulatol, mucronulatol]", "values": [{"measurement": "Antibacterial Effect with Specimen Concentration", "setting": "[1]; [6]", "value": "A"}, {"measurement": "Antibacterial Effect with Specimen Concentration", "setting": "[1]; [7]", "value": "A"}, {"measurement": "Antibacterial Effect with Specimen Concentration", "setting": "[2]; [6]", "value": "C"}, {"measurement": "Antibacterial Effect with Specimen Concentration", "setting": "[2]; [7]", "value": "A"}, {"measurement": "Antibacterial Effect with Specimen Concentration", "setting": "[3]; [6]", "value": "C"}, {"measurement": "Antibacterial Effect with Specimen Concentration", "setting": "[3]; [7]", "value": "A"}]}
{"smiles": "COc1cc(O)c(OC)c(OC)c1C1COc2cc(O)ccc2C1", "note": "(centres unmarked)", "values": [{"measurement": "Antibacterial Effect with Specimen Concentration", "setting": "[1]; [6]", "value": "D"}, {"measurement": "Antibacterial Effect with Specimen Concentration", "setting": "[1]; [7]", "value": "C"}, {"measurement": "Antibacterial Effect with Specimen Concentration", "setting": "[2]; [6]", "value": "C"}, {"measurement": "Antibacterial Effect with Specimen Concentration", "setting": "[2]; [7]", "value": "A"}, {"measurement": "Antibacterial Effect with Specimen Concentration", "setting": "[3]; [6]", "value": "C"}, {"measurement": "Antibacterial Effect with Specimen Concentration", "setting": "[3]; [7]", "value": "C"}]}
{"smiles": "COC1=C(OC)C(=O)C(C2COc3cc(O)ccc3C2)=CC1=O", "note": "(centres unmarked) [Pendulone, pendulone]", "values": [{"measurement": "Antibacterial Effect with Specimen Concentration", "setting": "[1]; [6]", "value": "A"}, {"measurement": "Antibacterial Effect with Specimen Concentration", "setting": "[1]; [7]", "value": "A"}, {"measurement": "Antibacterial Effect with Specimen Concentration", "setting": "[2]; [6]", "value": "C"}, {"measurement": "Antibacterial Effect with Specimen Concentration", "setting": "[2]; [7]", "value": "A"}, {"measurement": "Antibacterial Effect with Specimen Concentration", "setting": "[3]; [6]", "value": "C"}, {"measurement": "Antibacterial Effect with Specimen Concentration", "setting": "[3]; [7]", "value": "A"}]}
{"smiles": "O=C(O)c1ccc(O)cc1", "note": "[Paraben, reference compound]", "values": [{"measurement": "MIC", "setting": "[1]; [8]", "value": 800, "unit": "µg/mL"}, {"measurement": "MIC", "setting": "[2]; [8]", "value": 300, "unit": "µg/mL"}, {"measurement": "MIC", "setting": "[3]; [8]", "value": 500, "unit": "µg/mL"}, {"measurement": "MIC", "setting": "[4]", "value": 1000, "unit": "µg/mL"}, {"measurement": "MIC", "setting": "[5]", "value": 800, "unit": "µg/mL"}]}
{"smiles": "COC1=C(OC)C(=O)C(C2COc3c(ccc(O)c3OC)C2)=CC1=O", "note": "(single isomer, unassigned) [Amorphaquinone, amorphaquinone]", "values": [{"measurement": "Antibacterial Effect with Specimen Concentration", "setting": "[1]; [6]", "value": "A"}, {"measurement": "Antibacterial Effect with Specimen Concentration", "setting": "[1]; [7]", "value": "A"}, {"measurement": "Antibacterial Effect with Specimen Concentration", "setting": "[2]; [6]", "value": "C"}, {"measurement": "Antibacterial Effect with Specimen Concentration", "setting": "[2]; [7]", "value": "A"}, {"measurement": "Antibacterial Effect with Specimen Concentration", "setting": "[3]; [6]", "value": "B"}, {"measurement": "Antibacterial Effect with Specimen Concentration", "setting": "[3]; [7]", "value": "A"}]}
